Reference: publication PMC9430360 (Microbiology Spectrum, 2022)

What was measured:
[1] = Cytotoxicity assay (CytoTox 96, lactate dehydrogenase release); format: cell-based; settings: human, 293T cells, up to 100 μM
Description: To determine the cytotoxicity of the compounds, 70 to 80% confluent 293T cells in a 96-well plate were incubated with serial dilutions of each compound (up to 100 μM) for 5 h. Cell cytotoxicity was determined by a CytoTox 96 nonradioactive assay kit (Promega, Madison, WI) by measuring a cytosolic enzyme lactate dehydrogenase, which is released upon cell lysis, following the manufacturer’s instructions, and the 50% cytotoxic concentration (CC50) value for each compound was calculated using GraphPad Prism software. The nonspecific cytotoxic effects of these compounds were also reported previously ([30], [31], [40], [43], [44]).

GI.3P-GI.2 TX1 3CLpro = GI.3P-GI.2 TX1 3CLpro (Rabbit hemorrhagic disease virus 2, UniProt A0A7M4BDB7); assay: FRET assay, 3CLpro of GI.3P-GI.2 TX1 strain; format: biochemical, GI.3P-GI.2 (RHDV2/b); settings: 30 min preincubation with 3CLpro, 30 min with substrate, mean ± SEM, at least three experiments
FIP = tested on: FIP; parameters: method as in PMID 27027316, PMID 28901812; settings: cited from earlier work
3CLpro of GI.3P-GI.2 TX1 = target: T1, 3CLpro of GI.3P-GI.2 TX1 (Rabbit hemorrhagic disease virus 2, UniProt A0A7M4BDB7); assay: cell-based; parameters: species or system GI.3P-GI.2 (RHDV2/b)
T1 sequence (A0A7M4BDB7 1109-1251): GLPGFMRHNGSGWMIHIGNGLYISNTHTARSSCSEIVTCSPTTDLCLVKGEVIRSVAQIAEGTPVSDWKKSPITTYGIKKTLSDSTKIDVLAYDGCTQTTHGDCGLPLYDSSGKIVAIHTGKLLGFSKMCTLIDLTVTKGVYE

GII.1/EBHSV G104 3CLpro = GII.1/EBHSV G104 3CLpro (European brown hare syndrome virus, UniProt Q96725); assay: FRET assay, 3CLpro of GII.1/EBHSV G104 strain; format: biochemical
GI.1c/RHDV FRG 3CLpro = GI.1c/RHDV FRG 3CLpro (Rabbit hemorrhagic disease virus, UniProt P27410); assay: FRET assay, 3CLpro of GI.1c/RHDV FRG strain; format: biochemical; settings: 30 min preincubation with 3CLpro, 30 min with substrate, mean ± SEM, at least three experiments, read-out: IC50 GI.Ic/RHDV FRG
FIPV 3CLpro = tested on: FIPV 3CLpro; parameters: method as in PMID 30342822; settings: FRET assay; read-out: IC50 against FIPV 3CLpro; cited from earlier work
murine norovirus = tested on: murine norovirus; parameters: method as in PMID 25761614; settings: intestinal tracts of mice; cited from earlier work

Chain of GI.1c/RHDV FRG 3CLpro (P27410 1109-1251 limits assumed): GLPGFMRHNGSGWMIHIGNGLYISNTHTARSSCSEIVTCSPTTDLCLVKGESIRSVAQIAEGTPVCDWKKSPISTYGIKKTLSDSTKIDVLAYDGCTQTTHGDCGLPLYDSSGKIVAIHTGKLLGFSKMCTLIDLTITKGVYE
Chain of GII.1/EBHSV G104 3CLpro (Q96725 1102-1244 limits assumed): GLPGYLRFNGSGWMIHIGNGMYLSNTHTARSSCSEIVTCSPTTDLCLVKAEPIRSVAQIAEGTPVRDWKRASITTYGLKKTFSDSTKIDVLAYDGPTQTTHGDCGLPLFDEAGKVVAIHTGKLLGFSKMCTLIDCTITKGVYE

SMILES | CC50 at 5 h [1] | IC50 (GI.3P-GI.2 TX1 3CLpro) | in vivo efficacy in cats with FIP (FIP) | EC50 (3CLpro of GI.3P-GI.2 TX1) | IC50 (GII.1/EBHSV G104 3CLpro) | IC50 (GI.1c/RHDV FRG 3CLpro) | IC50 (FIPV 3CLpro) | in vivo efficacy, murine norovirus replication (murine norovirus)
CC(C)C[C@H](NC(=O)OCc1ccccc1)C(=O)N[C@H](C[C@@H]1CCNC1=O)C(O)S(=O)(=O)O (stereo partly shown) [GC376] | > 100000 nM | 1390 nM | reduced viral replication and improved survival | 5350 ± 140 nM | 1000 nM | 1210 nM | 500 nM | 
O=C[C@@H](C[C@@H]1CCNC1=O)NC(=O)[C@H](CC1CCCCC1)NC(=O)OCc1ccccc1 [GC543] | > 100000 nM | 120 ± 70 nM |  | 550 ± 60 nM | 70 ± 10 nM | 90 ± 30 nM |  | 
O=C[C@@H](C[C@@H]1CCNC1=O)NC(=O)[C@H](CC1CCCCC1)NC(=O)OCc1cccc(Cl)c1 [GC583] | > 100000 nM | 100 ± 80 nM |  | 460 ± 50 nM | 50 ± 10 nM | 80 ± 20 nM |  | significantly decreasing murine norovirus replication in the intestinal tracts of mice without toxicity
O=C(N[C@@H](CC1CCCCC1)C(=O)N[C@H](C[C@@H]1CCNC1=O)C(=O)C(=O)NC1CC1)OCc1cccc(Cl)c1 [GC591] | > 100000 nM | 730 ± 270 nM |  | 9800 ± 1260 nM | 430 ± 70 nM | 590 ± 40 nM |  | 
CC(C)CC(NC(=O)C(Cc1cccc2ccccc12)NC(=O)OCc1ccccc1)C(=O)NC(C=O)CC1CCNC1=O (stereo not shown) [NPI52] | > 100000 nM | 570 ± 360 nM |  | 4000 ± 430 nM | 300 ± 90 nM | 310 ± 20 nM |  | 
